Measured values: ChEMBL document CHEMBL1133377, “1-[2-(Diphenylmethoxy)ethyl]-2-methyl-5-nitroimidazole: a potent lead for the design of novel NNRTIs” (Bioorg Med Chem Lett, 2000)

Tests used:
[1] = Compound dose required to reduce viability of mock infected cells using MTT method; assay type: functional
MT4 = test: Compound dose required to achieve protection of MT-4 cells from HIV-1 induced cytopathicity using MTT method; assay type: functional, cell-based; settings: Homo sapiens
[2] = Selectivity index is ratio of CC50 to that of EC50; assay type: functional
[3] = molecular target: Human immunodeficiency virus type 1 reverse transcriptase (Human immunodeficiency virus 1, UniProt Q72547); test: Compound dose required to inhibit HIV-1 reverse transcriptase enzyme(rRT) activity

Compound	CC50 [1]	EC50 (MT4)	S.I [2]	IC50 [3]
Clc1ccc(C(OCCn2ccnc2)c2ccc(Cl)cc2Cl)cc1 (centres undefined)	26 µM	> 26 µM		
Cc1ncc([N+](=O)[O-])n1CCOC(c1ccccc1)c1ccc(F)cc1 (centres undefined)	> 200 µM	0.9 µM	222	2.3 µM
Cc1ccnc2c1NC(=O)c1cccnc1N2C1CC1 [NEVIRAPINE]	> 300 µM		> 1000	
c1ccc(C(OCCn2ccnc2)c2ccccc2)cc1	100 µM	> 100 µM		
Cc1ncc([N+](=O)[O-])n1CCOC(c1ccccc1)c1ccc(-c2ccccc2)cc1 (centres undefined)	> 200 µM	17 µM	12	
Cc1ncc([N+](=O)[O-])n1CCOC(c1ccccc1)c1ccc(Cl)cc1Cl (centres undefined)	54 µM	1.5 µM	36	1.4 µM
Clc1ccc(C(OCCn2ccnc2)c2ccccc2)c(Cl)c1 (centres undefined)	31 µM	> 31 µM		
Cc1ccc(C(OCCn2c([N+](=O)[O-])cnc2C)c2ccccc2)cc1 (centres undefined)	86 µM	1.4 µM	61	2.1 µM
Cc1ncc([N+](=O)[O-])n1CCOC(c1ccccc1)c1ccccc1	> 200 µM	0.2 µM	> 1000	0.05 µM
Cc1ncc([N+](=O)[O-])n1CCOC(c1ccccc1)c1ccc(C(C)(C)C)cc1 (centres undefined)	44 µM	4 µM	11	1.5 µM
Cc1ncc([N+](=O)[O-])n1CCOC(c1ccccc1)c1ccc(Cl)cc1 (centres undefined)	> 200 µM	12.5 µM	> 16	
